Laboratory results from patent US8829014B2, “Thiazole and thiophene analogues, and their use in treating autoimmune diseases and cancers” (Board of Supervisors of Louisiana State University and …, priority 2006, dated 2014).

What was measured:
Assay type in all cases: cell-based
eIF4E = eIF4E inhibitor screen: luciferase under FGF 5′UTR in FaDu cells (highly cap-dependent translation)
Excerpt: Since highly cap-dependent translation is associated with synthesis of proteins involved in cancer, a compound that inhibits this pathway may be used as an anti-cancer agent. The assay was developed by cloning the highly structured 5′ UTR of FGF, which requires high levels of eIF4E before protein synthesis can initiate, into the proper orientation of the reporter gene luciferase, and then stably transfecting the modified luciferase gene into the cell line FaDu that is known to have high levels of eIF4E. The activity of luciferase is then monitored in the presence and absence of the tested compound.
Generation of Stable Cell Lines: The pMS110 plasmid (pGL3-control plasmid from Promega which contains a neo selectable marker) was used to generate pMS110-5′UTR by cloning the 5′ UTR of FGF just upstream of the luciferase AUG start codon. FaDu cells, a head and neck cancer cell line, were transfected using Lipofectamine2000 (Invitrogen). Twenty-four hours after transfection G418 was added at 500 μg/ml. Cells were maintained in G418 for 14 days, and then individual colonies were transferred to a 96-well plate for propagation. Individual clones were analyzed for luciferase expression by plating 10^4 cells per well in a 96-well plate for 24 hours before lysing the cells and analyzing for luciferase activity in a Victor III (Perkin Elmer) or Lucy2 (Rosys Anthos). FaDu9000 and FaDuUTR were the clones that expressed the highest level of active luciferase following transfection of pMS110 and pMS110-5′UTR, respectively.
Analysis of Rapamycin Responsiveness: Cells of FaDu9000 and FaDuUTR were plated at 1×10^4 cells/well in a 96-well dish. Twenty-four hours after plating, 0.1% DMSO (vehicle control) or 10 nM rapamycin were added to each well, and the cells were maintained for an additional 24 or 48 hours. The cells were then lysed and luciferase activity was determined using BriteGlo (Promega) as per manufacturer's instruction and recorded using the Victor III. Following subtraction of background activity, the mean value of quadruplicate samples for a given experiment was determined, and the treated cells were normalized to the control. At least four separate experiments were conducted, and the mean and standard error were calculated. To determine if rapamycin affected cell viability, an MTS assay (Cell Proliferation One Solution, Promega) was carried out on each population at 48 hours in two separate experiments.
The FaDu cell line stably transfected with FGF 5′UTR was used to screen thirty-nine representative compounds, each at a concentration of 1.0 μM. Additional cells were treated with vehicle, 0.3% DMSO. Cells were plated for twenty-four hours in a 96-well plate. Each compound was then added to triplicate wells, and the cells were incubated for forty-eight hours before measuring luciferase activity as above. The mean luciferase activity was measured using Promega's Brite-Glo kit, and the mean for each sample was normalized to DMSO. The experiment was then repeated, and the average and standard deviation of the two experiments were determined (FIG. 8).

AP-1 = AP-1 inhibitor screen: basal AP-1-dependent luciferase expression in HEK/AP-1 cell line; conditions: 1.0 μM, 48 hr screen of 39 compounds (FIG. 13)
In short: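 HEK293 cells stably carrying a luciferase reporter driven by three AP-1 elements were plated 24 hr, then given compound at 1.0 μM in 0.3% DMSO for 48 hr, in triplicate. Basal expression without stimulus was read as luminescence (Brite-Glo), normalized to DMSO; dose-response runs repeated two to four times.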

NF-κB = NF-κB inhibitor screen: basal NF-κB-dependent luciferase expression in HEK/NF-κB cell line
In short: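 HEK293 cells stably carrying a luciferase reporter under six NF-κB elements were treated with compound, unstimulated, 24 h after plating. Compounds were first tested at 1.0 μM (0.3% DMSO), later at six doses from 10 to 3300 nM, in triplicate. Brite-Glo luciferase signal was normalized to DMSO, or to the lowest dose for dose-response runs.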

FaDu cells = conditions: MTT, 24 hr, 10 nM to 3.3 μM (FIG. 9)
Excerpt: […]. Values greater than 1.0 indicate activation, and values less than 1.0 indicate inhibition.) The compounds that inhibited luciferase translation might, potentially, act by generally inhibiting translation, by reducing cell numbers through inhibition of growth or by cell toxicity, or specifically by inhibiting highly cap-dependent translation. To analyze any general effects on cell viability, fourteen compounds were selected that altered luciferase activity (including a few that increased activity) to test for any effects on cell number. An MTT assay was used to monitor compounds for inhibition of cell growth and cell toxicity. The compounds were tested once in a six-point dose-response assay starting at 10 nM and increasing to 3.3 μM. FaDu cells were plated in a 96-well plate for 24 hr before addition of the compounds. Each compound was added in each of six concentrations (10 nM, 30 nM, 100 nM, 330 nM, 1000 nM, and 3300 nM), and each concentration was tested in triplicate. In addition, DMSO was used as a control. After incubating for 24 hr, the cell number was measured using the MTT assay.

COc1ccc(C(=O)c2sc(Nc3ccc(Cl)cc3)nc2-c2ccncc2)cc1 [Example 116]
luciferase expression under the control of the FGF 5′UTR (eIF4E; 1.0 μM, 48 h, FaDu UTR cells, normalized to DMSO (FIG. 8)): inhibited luciferase expression | inhibition of luciferase activity (FGF 5′UTR) (eIF4E; highest concentration tested): greater than 90% | inhibition of highly cap-dependent translation (summary statement) (eIF4E; summary in the disclosure): capable of inhibiting | basal AP-1-dependent luciferase expression (AP-1): almost complete inhibition | basal NF-κB-dependent luciferase, six-point dose response (NF-κB; 10 nM-3300 nM (FIG. 12)): robust inhibition | inhibition of basal NF-κB-dependent luciferase expression (NF-κB; 3.3 μM (FIG. 12)): about 50% | inhibition of NF-κB (summary statement) (NF-κB; summary in the disclosure): capable of inhibiting | FaDu cell number / growth / viability (FaDu cells): inhibited cell numbers at each concentration tested
